Results on 4 molecules are retold here after patent US5451518A, “Purified human ceramide-activated protein kinase” (Sloan-Kettering Institute for Cancer Research, priority 1992, dated 1995).

Entries after “also recorded” stand apart in the source; their conditions may differ. Read-outs that look alike come from different tables or passages of the source.

Series [1] deals with ceramide-activated protein kinase. As to conditions: for effect on EGFR peptide phosphorylation (in words): A-431.
Series [2] shares this test system. On the procedure:
Homogenates were centrifuged at 500×g for 5 minutes to remove nuclei and at 200,000×g for 30 minutes to prepare microsomal membranes. Membranes were resuspended into homogenizing buffer (2.2 μg membrane protein μl^-1). For assay of kinase activity, the reaction mixture contained 20 μl of microsomal membrane, 40 μl EGFR peptide (4 mg ml^-1 in 25 mM Hepes, pH 7.4) and 100 μl buffer (50 mM HEPES, pH 7.4, 20 mM MgCl2) (40). Phosphorylation was initiated at 22° C. by addition of 40 μl [γ-^32 P] ATP (100 μM final concentration) and terminated at the indicated times by addition of 40 μl of 0.5M ATP in 90% formic acid. Phosphorylated peptide was eluted from a C18 Sep pak cartridge (Millipore), lyophilized, and resolved by C18 reverse phase HPLC using a linear gradient of acetonitrile. […] All assays were performed under conditions determined as linear for time and enzyme concentration. Enzyme activity was determined from the percent conversion of substrate to product and the specific radioactivity of [γ-^32 P] ATP. […] Values (mean ± range) represent duplicate determinations from two experiments.
Activity was measured by the transfer of ^32 P from the γ-position of ATP to EGFR peptide (AA 663-681 of the EGFR). The effect of IL-1β on kinase activity was determined using microsomal membranes derived from cells stimulated with IL-1β.

The test system is the same in series [3]. Conditions: HL-60; cholera toxin 10 nM, retinoic acid 0.5 μM, butyrate 0.5 mM.
In series [4] the test system is A-431 human epidermoid carcinoma cells. As to conditions: A-431 cells; cited from earlier work.
For series [5], the system named is epidermal growth factor receptor (EGFR). Conditions: A-431 cells; cited from earlier work.
Series [6] deals with ceramide-activated protein kinase. Conditions: cited from earlier work.
For series [7] the test system is unchanged. The series can be described thus: Phosphoamino acid analysis of phosphorylated EGFR peptide. In kind it is biochemical, human. Conditions: A-431. From the text:
Reactions were done, and phosphorylated peptide was quantified as for FIG. 2. (Left) HPLC elution profile of samples with or without the EGFR peptide. (Right) Phosphoamino acid analysis of the phosphorylated peptide purified by HPLC. Phosphorylated amino acids (Y, […]; T, threonine; S, serine) were resolved by one-dimensional thin-layer electrophoresis and identified by ninhydrin staining of carrier phosphoamino acids and autoradiography.
To determine which amino acid was phosphorylated, phosphoamino acid analysis of the peptide was done. The phosphopeptide peak obtained by HPLC was subjected to partial acid hydrolysis (1 hr at 110° C. in 6M HCl). The hydrolysates were dried, resuspended in 250 μl of water, and applied to a Dowex AG1-X8 column (Bio-Rad). Amino acids were eluted with 0.5M HCl, dried, and analyzed by thin-layer electrophoresis, according to methods well known to those skilled in the art (26). Individual phosphoamino acids were identified by ninhydrin staining of carrier phosphoamino acids and by autoradiography.

Series [8] concerns HL-60 cells. As to conditions: cited from earlier work.
Series [9] has as its system HL-60 cells. As to conditions: cited from earlier work. This is another data set of the same source.

For `CCCCCCCCCCCCC/C=C/[C@@H](O)[C@@H](N)CO` [sphingosine], in series [1], the “effect on EGFR peptide phosphorylation (in words)” value is “similarly effective”. The “stimulation of EGFR peptide phosphorylation” value in series [1] (sphingosine (0.001-3 μM), 2 minutes) is recorded as 1.6 fold of control. Also, in series [2] (10 nM to 1 μM), the “enhancement of kinase activity” value was 1.5-2.5 of control. Besides, in [3], the “effect on kinase activity (in words)” value was “similarly as effective as C8-cer”. Further, in series [4], the conversion to ceramide entry is on record as “rapidly converted to ceramide”. Moreover, the “EGFR phosphorylation on Thr-669” value in series [5] was “enhanced phosphorylation of the EGFR on Thr-669; also recorded: stimulated phosphorylation of the EGFR on Thr-669; also recorded: induced epidermal growth factor receptor (EGFR) phosphorylation on Thr-669”.

For Ceramide, the lowest effective concentration in series [1] (2 minutes) and in series [1] (abstract) was 1 nM in each case. Besides, the “effect on EGFR peptide phosphorylation (in words)” value is recorded as “Only membrane activity was enhanced” in [1] and “similarly effective” in series [1] (listed as natural ceramide (Sigma type III)). Also, the “increase in kinase activity” value in series [1] (a-431 cells, 0.5 min, 0.5 µM) is listed as 2 -fold. Moreover, in series [1] (a-431 cells, 2 min, 1 µM), the “maximal effect on EGFR peptide phosphorylation” value is 2.1 -fold of control. For the same molecule, the “duration of stimulation of kinase activity” value in series [1] (ceramide 0.5 μM) is “at least 15 minutes”. Further, in series [1] (ceramide 0.5 μM), the “time at which stimulation of EGFR peptide phosphorylation was evident” value is listed as not above 30 s. Besides, the “concentration for maximal effect” value in series [1] (peptide phosphorylation, 2 minutes) came out at 1 µM. In addition, the EC50 in series [1] (read-out: ED50 for EGFR peptide phosphorylation, 2 minutes) is approximately 30 nM. Also, the “maximum enhancement of kinase activity” value in series [6] (ceramide 0.001 to 3 μM) was “two-fold of the control”. Further, the “effect on kinase activity (in words)” value in series [3] is on record as “induced a similar effect”. For the same molecule, the phosphorylated residue entry in series [7] is listed as “exclusively on the threonine residue”. Further, in series [5], the “EGFR phosphorylation on Thr-669” value is recorded as “induced identical effects; also recorded: induced identical phosphorylation”.

For “NH2 -Glu-Leu-Val-Glu-Pro-Leu-Thr-Pro-Ser-Gly-Glu-Ala-Pro-Asn-Gln-Ala-Leu-Leu-Arg-COOH (H-ELVEPLTPSGEAPNQALLR-OH) [EGFR peptide, EGFR peptide (amino acids 663-681)]”, the “Apparent Km for EGFR peptide” value in series [1] (A-431, 5 minutes) stood at 0.25 mg/mL. Also, the “Apparent Vmax” value in [1] (A-431, EGFR peptide substrate) is recorded as 100-200 pmol.min^-` /mg of protein^-1. Moreover, in series [2] (EL-4, baseline), the maximum reaction velocity is given as 12.5 pmol min^-1 mg^-1 of microsomal membrane protein. For the same molecule, in [2] (EL-4 microsomal membrane, baseline), the “Michaelis constant (Km) for EGFR peptide” value was determined as 0.15 mg/mL. Also, the “maximum velocity (V°max)” value in series [6] (EGFR peptide substrate) is recorded as 50 to 100 pmol per minute per milligram (pmol min^-1 mg^-1) of protein. In [6] (nuclei-free supernates), the “Michaelis constant (Km) for peptide” value was 0.25 mg/mL. For the same molecule, in series [7], the phosphorylated residue result is “only threonine-669 served as substrate”.

B1: γ interferon: factor that induces monocytic differentiation of HL-60 cells (protein, UniProt P01579 24-161, looked up)
Interferon gamma: QDPYVKEAENLKKYFNAGHSDVADNGTLFLGILKNWKEESDRKIMQSQIVSFYFKLFKNFKDDQSIQKSVETIKEDMNVKFFNSNKKKRDDFEKLTNYSVTDLNVQRKAIHELIQVMAELSPAAKTGKRKRSQMLFRG
B1: the monocytic differentiation result in the series on HL-60 cells [8] is listed as “induce monocytic differentiation”. The “sphingomyelin degradation to ceramide / ceramide level (in words)” value with HL-60 cells [9] is “stimulate sphingomyelin degradation to ceramide”.
